Data set [1] deals with placental BM vesicles. The settings on record: cited from earlier work.
In data set [2] the target is T1, OAT4 (Homo sapiens, UniProt Q9NSA0).
T1 sequence (Q9NSA0 1-550): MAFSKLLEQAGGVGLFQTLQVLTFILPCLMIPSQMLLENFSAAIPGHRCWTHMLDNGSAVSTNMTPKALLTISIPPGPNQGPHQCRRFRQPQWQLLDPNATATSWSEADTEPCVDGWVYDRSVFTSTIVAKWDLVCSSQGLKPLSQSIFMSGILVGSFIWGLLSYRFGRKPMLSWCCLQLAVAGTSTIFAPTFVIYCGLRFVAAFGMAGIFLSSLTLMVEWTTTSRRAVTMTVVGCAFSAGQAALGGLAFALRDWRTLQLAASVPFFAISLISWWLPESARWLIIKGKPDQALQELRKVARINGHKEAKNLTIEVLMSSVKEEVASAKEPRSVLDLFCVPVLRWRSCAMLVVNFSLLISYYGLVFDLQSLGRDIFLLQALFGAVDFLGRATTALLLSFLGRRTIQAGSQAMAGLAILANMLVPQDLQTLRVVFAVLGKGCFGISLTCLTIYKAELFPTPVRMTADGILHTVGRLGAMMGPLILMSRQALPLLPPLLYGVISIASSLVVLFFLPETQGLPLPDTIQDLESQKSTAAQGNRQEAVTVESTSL
Put plainly: Effect of E3S on OAT4-mediated uptake of pravastatin. Type of data set: in vitro ADME. The settings on record: E3S (200 μM), 2 μM pravastatin.

Data set [3] addresses OATP5A1 (Homo sapiens, UniProt Q9H2Y9). Put plainly: Uptake into HEK293 cells stably overexpressing OATP5A1. Type of data set: in vitro ADME. Conditions: for transport by OATP5A1 in HEK293-OATP5A1 cells: pH 7.4.
Data set [4] deals with placental BM vesicles. Put plainly: Glutarate-stimulated uptake of pravastatin by placental BM vesicles. Type of data set: in vitro ADME, human.
Data set [5] concerns placental AM vesicles. Put plainly: Glutarate-stimulated uptake of pravastatin by placental AM vesicles. Type of data set: in vitro ADME, human. Conditions: 1 μM [3H]Pravastatin, 37°C.
The target in data set [6] is T2, OATP2A1 (Homo sapiens, UniProt Q92959). Put plainly: Uptake into HEK293 cells stably overexpressing OATP2A1. Type of data set: in vitro ADME. The settings on record: 1 min.
The target in data set [7] is T3, OATP1A2 (Homo sapiens, UniProt P46721).
T3 sequence (P46721 1-670): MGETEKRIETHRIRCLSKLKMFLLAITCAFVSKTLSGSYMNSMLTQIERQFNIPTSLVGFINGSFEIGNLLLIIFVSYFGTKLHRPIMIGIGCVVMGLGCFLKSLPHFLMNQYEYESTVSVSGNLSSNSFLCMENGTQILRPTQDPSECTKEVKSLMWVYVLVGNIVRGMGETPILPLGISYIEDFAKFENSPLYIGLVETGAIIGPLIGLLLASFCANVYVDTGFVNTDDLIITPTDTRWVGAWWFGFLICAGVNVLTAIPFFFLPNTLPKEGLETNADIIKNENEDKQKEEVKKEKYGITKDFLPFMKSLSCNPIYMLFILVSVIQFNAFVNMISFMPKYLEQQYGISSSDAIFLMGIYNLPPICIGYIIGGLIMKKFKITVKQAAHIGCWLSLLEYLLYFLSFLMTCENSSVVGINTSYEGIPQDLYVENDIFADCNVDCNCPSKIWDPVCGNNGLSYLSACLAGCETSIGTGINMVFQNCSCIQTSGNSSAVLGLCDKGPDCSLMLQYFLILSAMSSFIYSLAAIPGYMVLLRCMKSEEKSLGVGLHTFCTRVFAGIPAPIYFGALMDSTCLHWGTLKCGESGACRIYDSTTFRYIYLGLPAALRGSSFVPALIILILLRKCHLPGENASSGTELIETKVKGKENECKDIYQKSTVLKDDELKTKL
Put plainly: Uptake into HEK293 cells transiently overexpressing OATP1A2. Type of data set: in vitro ADME.

In data set [8] the target is T1, OAT4. In words: OAT4-mediated efflux of preloaded pravastatin from T-REx-OAT4-293 cells. Type of data set: in vitro ADME.
Data set [9] addresses T4, OATP2B1 (Homo sapiens, UniProt O94956).
T4 sequence (O94956 1-709): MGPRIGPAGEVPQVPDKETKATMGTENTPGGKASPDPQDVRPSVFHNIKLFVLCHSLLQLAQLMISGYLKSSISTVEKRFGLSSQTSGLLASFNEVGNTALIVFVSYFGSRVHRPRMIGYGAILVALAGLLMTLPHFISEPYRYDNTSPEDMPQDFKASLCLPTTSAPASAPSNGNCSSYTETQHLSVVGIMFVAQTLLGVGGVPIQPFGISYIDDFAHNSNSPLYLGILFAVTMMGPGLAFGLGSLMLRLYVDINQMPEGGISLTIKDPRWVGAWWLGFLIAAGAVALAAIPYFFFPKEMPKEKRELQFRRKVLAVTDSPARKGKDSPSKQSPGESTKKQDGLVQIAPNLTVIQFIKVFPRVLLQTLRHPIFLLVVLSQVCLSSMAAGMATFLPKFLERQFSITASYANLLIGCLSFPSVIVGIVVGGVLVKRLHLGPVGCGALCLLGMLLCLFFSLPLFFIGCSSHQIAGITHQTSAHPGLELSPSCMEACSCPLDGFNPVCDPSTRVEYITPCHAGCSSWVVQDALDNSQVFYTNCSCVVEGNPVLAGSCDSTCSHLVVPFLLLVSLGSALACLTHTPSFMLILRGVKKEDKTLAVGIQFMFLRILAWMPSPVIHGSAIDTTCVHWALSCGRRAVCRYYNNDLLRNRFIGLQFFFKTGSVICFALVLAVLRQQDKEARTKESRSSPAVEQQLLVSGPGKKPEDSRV

Data set [10] deals with placenta. The settings on record: ex vivo placental perfusion; cited from earlier work.
In data set [11] the test system is OAT4. The settings on record: S2 cells expressing OAT4, single component saturation kinetics; ref 20 (Nakagomi-Hagihara et al, 2007); cited from earlier work.
For data set [12] the following is noted: pregnant women taking 10 mg daily dose; cited from earlier work.
Data set [13] addresses T1, OAT4. Put plainly: Uptake into tetracycline-inducible T-REx-OAT4-293 cells. The settings on record: for Uptake, Net (transporter-mediated) / Uptake, Transporter-expressing cells: OAT4, 4 μM pravastatin; for Kt / Vmax: OAT4-mediated uptake, physiological pH, 37°C; for Uptake, Control: control cells for OAT4, 4 μM pravastatin.
In data set [14] the target is T2, OATP2A1. The settings on record: 2 μM pravastatin.
Setting [15] is: OATP2A1-mediated uptake, physiological pH, 37°C.
The mark [16] stands for this setting: OATP1A2-mediated uptake at pH 6.0.
The mark [17] stands for this setting: OATP1A2-mediated uptake, physiological pH, 37°C, 30 s.
Setting [18] is: GA (glutaric acid preload), 30 s.
Where [19] appears, read: higher concentration range (low affinity).

SMILES strings stand for the structures. Values joined by “and” are separate entries in the source; they are usually repeats but may differ in a detail not shown here. Identical values can stand only once.

Sequence of OATP5A1 (Q9H2Y9 whole entry): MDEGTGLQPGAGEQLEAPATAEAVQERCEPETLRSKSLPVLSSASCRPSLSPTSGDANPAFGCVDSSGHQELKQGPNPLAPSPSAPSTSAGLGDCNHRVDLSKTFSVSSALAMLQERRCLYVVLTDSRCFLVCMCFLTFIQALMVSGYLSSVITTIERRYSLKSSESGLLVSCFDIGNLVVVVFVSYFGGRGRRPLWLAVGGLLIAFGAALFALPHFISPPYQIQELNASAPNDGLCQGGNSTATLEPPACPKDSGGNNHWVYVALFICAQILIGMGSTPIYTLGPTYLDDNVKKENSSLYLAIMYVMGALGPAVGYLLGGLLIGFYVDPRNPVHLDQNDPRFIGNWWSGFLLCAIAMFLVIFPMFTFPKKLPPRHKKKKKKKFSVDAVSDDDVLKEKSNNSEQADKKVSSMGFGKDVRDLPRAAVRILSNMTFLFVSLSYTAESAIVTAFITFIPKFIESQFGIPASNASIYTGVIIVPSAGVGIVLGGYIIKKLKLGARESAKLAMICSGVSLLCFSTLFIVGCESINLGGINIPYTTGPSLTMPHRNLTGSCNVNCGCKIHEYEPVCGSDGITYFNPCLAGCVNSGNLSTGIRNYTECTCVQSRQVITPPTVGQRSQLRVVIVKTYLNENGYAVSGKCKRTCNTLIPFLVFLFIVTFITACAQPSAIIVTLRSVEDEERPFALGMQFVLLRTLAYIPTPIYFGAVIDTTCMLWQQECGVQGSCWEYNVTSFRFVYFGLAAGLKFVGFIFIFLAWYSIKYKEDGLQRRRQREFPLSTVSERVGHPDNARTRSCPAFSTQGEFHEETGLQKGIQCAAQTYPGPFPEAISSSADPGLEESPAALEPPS

As for `C[C@]12CC[C@H](O)CC1=CC[C@@H]1[C@@H]2CC[C@]2(C)C(=O)[C@H](O)C[C@@H]12` [16α-hydroxydehydroepiandrosterone], the “increase of the uptake into placental BM vesicles by glutarate trans-stimulation” value in data set [1] is reported as 56%.
For the molecule `C[C@]12CC[C@@H]3c4ccc(OS(=O)(=O)O)cc4CC[C@H]3[C@@H]1CCC2=O` [E3S, estrone-3-sulfate], the “inhibition of OAT4-mediated uptake of pravastatin” value in data set [2] was “complete inhibition”.
For the molecule `CCCCC[C@H](O)/C=C/[C@H]1[C@H](O)CC(=O)[C@@H]1C/C=C\CCCC(=O)O` [PE2, Prostaglandin-E2], the “transport by OATP5A1 in HEK293-OATP5A1 cells” value (from here on “transport by OATP5A1”) in data set [3] was “none of the substrates tested, namely pravastatin, E3S, PE2 and fluorescein were found to be transported”.
Turning to `CC[C@H](C)C(=O)O[C@H]1C[C@H](O)C=C2C=C[C@H](C)[C@H](CC[C@@H](O)C[C@@H](O)CC(=O)O)[C@H]21` [Pravastatin], the “net (glutarate-dependent) uptake into BM vesicles at 4°C” value in data set [4] (4°C, 0.5-2 μM) is “negligible”. In data set [4] (BM vesicles, glutarate preload, Fig 1A), the “trans-stimulatory effect of glutarate on the uptake into placental BM vesicles (increase)” value stood at 18%. The “glutarate-stimulated uptake into BM vesicles” value in [4] (pravastatin concentrations below 1 μM, 37°C) is recorded as “did not detect any glutarate-stimulated uptake”. For the same molecule, in data set [4] (two-fold increase of substrate from 1 μM to 2 μM, 37°C), the “glutarate-stimulated uptake into BM vesicles, concentration dependence” value is on record as “proportional increase”. Moreover, the “glutarate-stimulated uptake into AM vesicles” value in data set [5] is listed as “insignificant”. In addition, the “Uptake, Transporter-expressing cells” value is reported as 0.46 ± 0.06 pmol/mg protein/min in data set [6] (OATP2A1, 1 μM pravastatin, 37°C, neutral pH); 1.73 ± 0.31 pmol/mg protein/min in [7] (OATP1A2, 0.75 μM [3H]Pravastatin, 37°C, 30 s, neutral pH); 1.85 ± 0.18 pmol/mg protein/min in data set [3] (OATP5A1, 10 μM pravastatin, 37°C, 1 min, neutral pH); 0.71 ± 0.13 pmol/mg protein/min in [9] (OATP2B1, 0.75 μM [3H]Pravastatin, 37°C, 1 min, neutral pH); 8.66 ± 0.80 ^*^, # pmol/mg protein/min in [13] (Cl-free uptake buffer, 30 s); 7.04 ± 0.97 ^*^, # pmol/mg protein/min in data set [13] (setting [18]). Besides, the Kt in data set [6] (setting [15]) was 188 ± 109 µM; in data set [7] (setting [17]), 1.60 ± 0.97 µM; in data set [11], 257 µM; in data set [13] (setting [19]), 295 ± 99 µM and 295 ± 99.0 µM; in [13] (lower concentration range (high-affinity), 30 s), 30.5 ± 75.0 µM. Further, the Vmax came out at 73.8 ± 19.2 pmol/mg protein*min^−1 in data set [6] (setting [15]), 4.08 ± 0.72 pmol/mg protein*min^−1 in data set [7] (setting [17]), 345 ± 54.8 pmol/mg protein*min^−1 in data set [13] (setting [19]) and 42.0 ± 93.4 pmol/mg protein*min^−1 in data set [13] (lower concentration range (high-affinity)). Further, the “Uptake, Control” value in [6] (control cells for OATP2A1, 1 μM pravastatin, neutral pH) was 0.26 ± 0.06 pmol/mg protein/min; in data set [7] (control cells for OATP1A2, 0.75 μM [3H]Pravastatin, 30 s, neutral pH), 0.66 ± 0.15 pmol/mg protein/min; in data set [3] (control cells for OATP5A1, 10 μM pravastatin, 1 min, neutral pH), 1.62 ± 0.18 pmol/mg protein/min; in data set [9] (control cells for OATP2B1, 0.75 μM [3H]Pravastatin, 1 min, neutral pH) it was 0.61 ± 0.13 pmol/mg protein/min; in data set [13] (Cl-free uptake buffer, 30 s) it was 1.51 ± 0.24 pmol/mg protein/min; in data set [13] (setting [18]), 1.87 ± 0.25 pmol/mg protein/min. For the same molecule, the “Uptake, Net (transporter-mediated)” value was determined as 1.06 ± 0.32 pmol/mg protein/min in data set [7] (OATP1A2, 0.75 μM [3H]Pravastatin, 30 s, neutral pH); 0.23 ± 0.01 pmol/mg protein/min in data set [3] (OATP5A1, 10 μM pravastatin, 1 min, neutral pH); 0.10 ± 0.16 pmol/mg protein/min in data set [9] (OATP2B1, 0.75 μM [3H]Pravastatin, 1 min, neutral pH); 2.86 ± 0.27 pmol/mg protein/min in data set [13] (30 s, chloride, no glutarate preload); 7.15 ± 0.59 pmol/mg protein/min in data set [13] (Cl-free uptake buffer, 30 s); 5.17 ± 0.84 pmol/mg protein/min in data set [13] (setting [18]). In addition, in data set [7] (setting [16]), the “apparent Kt” value stood at 23.6 ± 2.87 µM. The “apparent Vmax” value in data set [7] (setting [16]) stood at 361 ± 29.3 pmol/mg protein*min^−1. Also, in [3], the “transport by OATP5A1” value is “none of the substrates tested, namely pravastatin, E3S, PE2 and fluorescein were found to be transported”. In data set [8] (OAT4-expressing cells, chloride-free condition, 60 s efflux, preload 4 μM), this molecule returned a remaining preloaded pravastatin of 39 ± 2%. For the same molecule, the “estimated Ke of the pravastatin efflux” value in [8] (chloride-free condition, OAT4-expressing cells) is recorded as 2.1 ± 0.5 10^−2s^−1; in data set [8] (chloride-free condition, control cells), 3.6 ± 2.1 10^−2s^−1; in [8] (presence of extracellular chloride, OAT4-expressing cells), 2.6 ± 0.6 10^−2s^−1; in data set [8] (presence of extracellular chloride, control cells), 3.0 ± 1.0 10^−2s^−1. For the same molecule, the OATP2B1-mediated uptake entry in [9] (pH 7.4) is “did not detect any OATP2B1-mediated uptake”. For the same molecule, the “clearance index, direction of transfer” value in [10] is on record as “higher in the fetal-to-maternal direction than in the maternal-to-fetal direction”. The “drug crossing the placenta from the maternal to fetal direction” value in [10] is 18 ± 4%. Further, in [12], the “steady state plasma concentrations” value is given as “nanomolar range”.
In the case of `O=C(O)Cc1ccccc1Nc1c(Cl)cccc1Cl` [diclofenac], the “decrease of the net, OATP2A1-dependent, uptake of pravastatin” value in [14] (diclofenac 20 μM) turned out to be 50%. For the same molecule, the “effect on uptake of pravastatin into OATP2A1-expressing cells” value in [14] (diclofenac 200 μM) is “did not result in a statistically significant decrease”.
`O=C1OC2(c3ccc(O)cc3Oc3cc(O)ccc32)c2ccccc21` [fluorescein, sodium fluorescein]: the “transport by OATP5A1” value in data set [3] is “none of the substrates tested, namely pravastatin, E3S, PE2 and fluorescein were found to be transported”.
`CCCc1nc(C(C)(C)O)c(C(=O)O)n1Cc1ccc(-c2ccccc2-c2nnn[nH]2)cc1` [olmesartan]: in data set [1], the “increase of the uptake into placental BM vesicles by glutarate trans-stimulation” value is 33%.

These data come from PMC8792198 (Journal of pharmaceutical sciences, 2021).
